Experiment: In vitro dissolution of rofecoxib in T80/PBS
Type: physicochemical
Settings: after 1 hour; PBS containing 0.08% Tween 80, 200 mL; FIG. 2, FIG. 3
Experimental: Rofecoxib containing materials (either tablets, or bulk rofecoxib powder, or porous rofecoxib matrix powder) containing 20-31 mg of rofecoxib were added to 200 mL of 5% dextrose at room temperature in a 600 mL beaker. For bulk rofecoxib powder and porous rofecoxib matrix powder the resulting suspension was stirred for 5 minutes. For tablets (either marketed rofecoxib tablets (VIOXX®) or porous rofecoxib matrix tablet) the resulting suspension was stirred for 3-4 minutes beyond the time required for complete tablet disintegration. A sample of the suspension (containing 0.050-0.077 mg of rofecoxib) was then transferred to the dissolution vessel.
Dissolution studies for rofecoxib were conducted in PBS (phosphate buffered saline) containing 0.08% Tween 80 (T80/PBS). The dissolution vessel was a 600 mL beaker containing 200 mL of T80/PBS, and was stirred Samples were removed via pipet and centrifuged for 5 minutes at 10,000 rpm. Samples were analyzed by HPLC for rofecoxib. Control samples (for total rofecoxib concentration in the suspension vessel) were removed via pipet, and dissolved in acetonitrile, and the resulting solutions analyzed by HPLC for rofecoxib. […]

In the case of `CS(=O)(=O)c1ccc(C2=C(c3ccccc3)C(=O)OC2)cc1` [rofecoxib, 4-[4-(methylsulfonyl)phenyl]-3-phenyl-2(5H)-furanone], the “percent dissolved (relative to total rofecoxib concentration in the suspension vessel)” value is reported as 41%.

Reference: patent publication US6800297B2, “Porous COX-2 inhibitor matrices and methods of manufacture thereof” (Acusphere, Inc., priority 2000, dated 2004)
